Consider one molecule from paper PMC7334220, “Diamond Blackfan anemia is mediated by hyperactive Nemo-like kinase” (Nature Communications, 2020).

The test system of assay [1] is ribosome-competent cord blood CD34+ HSPCs (shLuc). In words: In vitro differentiation of cord blood CD34+ HSPCs transduced with control shRNA (luciferase). In kind it is cell-based, human. As for the experimental part: Lin-Kit^+ fetal liver cells were obtained from mouse embryos expressing tet-on shRNA against RPS19, at day E14.5-15.5. Cells were plated at 2000 cell per well in 96-well plates in the presence or absence of doxycycline. Relative amounts of live cells were quantified by luciferase-based Cell titer-Glo® assay. b TGFβR1 inhibitors were assessed for their ability to increase cell expansion in RPS19-insuffiency. As a control, vehicle alone (no doxycycline) is represented at the far left while all other samples were treated with doxycycline to induce RPS19-insufficiency. c Kit^+ erythroid progenitors were grown in the absence of doxycycline and in the presence of 10 µM of indicated compound. In addition, cells were treated with 5 ng/ml of TGFβ1 for 5 days before being subjected to Cell titer-Glo® assay. d Differentiating cord blood CD34^+ progenitors were transduced with shRNA against luciferase or RPS19 and treated with inhibitors at working concentrations for TGFβ inhibition every three days. […] Cells were counted and CD235^+ erythroid (i and iii) and CD11b^+ myeloid cell (ii and iv) percentages were determined by flow cytometry. The number of erythroid or myeloid cells is expressed as a percentage of the number of that lineage with no cytokine or drug treatment. […]
Fig. 8 NLK inhibition increases expansion of erythroid progenitors from human and murine models of DBA. a Human cord blood CD34^+ progenitors were transduced with lentivirus co-expressing GFP with shRNA against luciferase (shLuc), RPS19 (shRPS19), or RPL11 (shRPL11). […] Cells were counted and assessed for cell surface expression of CD235. b Lin-Kit^+ hematopoietic progenitors were obtained from three mouse embryos expressing tetracycline-inducible shRNA against RPS19 at day E14.5 or three untreated mice, and thee mature RPL11^+/+ or three mature RPL11^+/lox mice treated with tamoxifen for eight weeks. […] Values were expressed as a percentage relative to untreated controls. c, d Intracellular phosphorylation of NLK at Thr298 was determined by capillary electrophoresis using the Peggy Sue™ Automated Western blotting platform. […]

The next assay has as its target T1, NLK (Homo sapiens, UniProt Q9UBE8).
T1 construct: NLK, p38, or ALK5 for in vitro kinase assays were immunopurified from Kp53A1 cells; endogenous in cells; immunoprecipitated with anti-NLK (Abcam AB97642)
T1 sequence (Q9UBE8 1-527): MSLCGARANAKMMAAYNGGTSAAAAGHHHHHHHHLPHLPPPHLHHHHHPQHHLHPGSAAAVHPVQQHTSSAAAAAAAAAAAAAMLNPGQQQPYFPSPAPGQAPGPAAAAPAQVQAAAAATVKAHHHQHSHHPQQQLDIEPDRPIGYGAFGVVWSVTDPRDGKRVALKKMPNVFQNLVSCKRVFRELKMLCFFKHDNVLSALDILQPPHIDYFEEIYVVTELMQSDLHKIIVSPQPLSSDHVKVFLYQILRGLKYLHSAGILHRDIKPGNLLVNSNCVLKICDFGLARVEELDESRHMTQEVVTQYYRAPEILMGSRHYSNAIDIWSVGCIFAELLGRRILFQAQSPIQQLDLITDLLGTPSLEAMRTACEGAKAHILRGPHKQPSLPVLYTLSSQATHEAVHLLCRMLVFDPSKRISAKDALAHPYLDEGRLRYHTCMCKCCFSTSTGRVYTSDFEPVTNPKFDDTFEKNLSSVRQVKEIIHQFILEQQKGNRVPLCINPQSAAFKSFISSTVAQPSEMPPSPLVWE
In words: DiscoveRX kinase profile analysis of SD208, NLK. In kind it is biochemical. The note with it: kinase profiling, Supplementary Fig. 2a. As for the experimental part: Supplementary Fig. 2. SD208 and NLK siRNA are specific. (a) The top 22 hits from DiscoveRX kinase profile analysis of SD208. (b) Human cord blood CD34+ progenitors were transduced shRNA against luciferase (shLuc) or RPS19 (shRPS19) and differentiated in erythroid media in the presence […]
days. Cells were counted and assessed for cell surface expression of CD235. Effective inhibition of p38 activity was assessed by lysis of treated controls and Western blot analysis of pp38. (c) Cord blood CD34+ progenitors were transduced with shRNA against RPS19 and either non-targeting (NT) or 1 of 3 different shRNA sequences against NLK. After sorting, cells were differentiated for 12 days. Lysates were subjected to qRT-PCR to assess NLK expression (Upper) and the number of CD235+ erythroblasts was determined by flow cytometry and is expressed relative to erythroid expansion of control cells (Lower). (d) Kp53A1 cells were untransfected (Unt), transfected with a non-targeting sequence (NT), or siRNA against NLK (siNLK). Phosphorylation status of p38, JNK and ERK was determined by treating transfected Kp53A1 cells EPO prior to Western blot analysis for pp38, pJNK and pERK. Transfected cells were cultured for 48 hours prior to lysis. Lysates were subjected to SDS-PAGE and protein expression of the listed proteins was determined by Western blot analysis. […]

On to `Fc1ccc(Cl)cc1-c1nc(Nc2ccncc2)c2nccnc2n1` [SD208], for which, in assay [1] (Homo sapiens, 360 h, read-out: erythroid expansion of HSPCs transduced with control shRNA, % of control), the activity at 5 µM was ~105%. Besides, the “restoration of erythroid and myeloid expansion of TGFβ-treated cells” value in assay [1] (ribosome-competent cells, 5 ng/ml TGFβ1, 5 µM compound, 15 days, Fig. 1e) is reported as “restored”. 10 µM produced 96.8% inhibition at NLK.
